Drawing on ChEMBL document CHEMBL4261596, “Growth inhibition of human ovarian carcinoma by a novel AvidinOX-anchored biotinylated camptothecin derivative” (Bioorg Med Chem Lett, 2018), this text covers Activity, TGI and IC50 for 1 molecule.

Activity calls are given as the source filed them. The rule behind the calls is not given here.

For data set [1], the target named is Streptavidin (Streptomyces avidinii) (UniProt P22629). The data set is described as follows: Binding affinity to Streptomyces avidinii streptavidin assessed as reduction in biotinylated-alkaline phosphatase (unknown origin) binding at 1 to 1000 uM by ELISA.
Streptavidin (Streptomyces avidinii), sequence (P22629 whole entry): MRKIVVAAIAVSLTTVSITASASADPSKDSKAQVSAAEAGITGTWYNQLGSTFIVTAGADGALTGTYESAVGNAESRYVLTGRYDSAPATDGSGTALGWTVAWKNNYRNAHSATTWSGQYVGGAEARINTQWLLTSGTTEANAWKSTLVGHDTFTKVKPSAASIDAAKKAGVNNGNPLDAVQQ
In data set [2] the test system is SK-OV-3. The data set is described as follows: Antitumor activity against human SKOV3 cells xenografted in intratumorally dosed Nu/Nu mouse assessed as inhibition of tumor volume administered as single dose and monitored for 2 weeks starting from day 18 post tumor injection and measured after 32 days post dose using avidinOX conjugated compound. The data set is classed as functional. Background: Xenograft models place foreign cells or tissue in a host animal.

The test system of data set [3] is Mus musculus. The data set is described as follows: Toxicity in Nu/Nu intratumorally dosed mouse xenografted with human […] cells assessed as effect on body weight administered as single dose starting from day 18 post tumor injection and measured for 50 days post dose. In kind it is organism-based. Conditions: in vivo, other, 1200 h.
Data set [4] deals with SK-OV-3. The data set is described as follows: Antitumor activity against human SKOV3 cells xenografted in intratumorally dosed Nu/Nu mouse assessed as inhibition of tumor volume administered as single dose and monitored for 2 weeks starting from day 18 post tumor injection and measured after 32 days post dose. In kind it is functional.
Data set [5] relates to A-431. In words: Antiproliferative activity against human A431 cells. In kind it is functional, cell-based.
The subject of data set [6] is Mus musculus. The data set is described as follows: Toxicity in Nu/Nu intratumorally dosed mouse xenografted with human […] cells assessed as effect on body weight administered as single dose starting from day 18 post tumor injection and measured for 50 days post dose using avidinOX conjugated compound. The data set is classed as organism-based. Conditions: in vivo, other, 1200 h.

As usually defined, the TGI is how far tumour growth fell short of that in controls. A word on the IC50: it is the midpoint of a concentration-inhibition curve. Read a low IC50 as greater potency. On to `CC[C@@]1(OC(=O)OCCSSCCNC(=O)CCCC[C@@H]2SC[C@@H]3NC(=O)N[C@@H]32)C(=O)OCc2c1cc1n(c2=O)Cc2c-1nc1ccccc1c2/C=N/OC(C)(C)C`, for which the result in data set [1] was Active. Further, the TGI stood at 68% in data set [2] and 48% in data set [4]. Besides, the Activity result in data set [3] and in data set [6] was “Non-Toxic” in each case. In addition, the IC50 in data set [5] turned out to be 9.2 nM.
